Test results taken from patent US10124065B2, “Lipids and lipid compositions for the delivery of active agents” (Novartis AG, priority 2013, dated 2018).
Like-named read-outs stand apart in the source and are kept apart here.

Assays:
[1] = pKa measurement of cationic lipid (TNS fluorescence); format: physicochemical; conditions: pKa of the cationic lipid of formula (I), Table 4
Procedure: Unless indicated otherwise, all pKa's referred to herein were measured at standard temperature and pressure. Also, unless otherwise indicated, all references to pKa are references to pKa measured using the following technique. 2 mM solution of lipid in ethanol was prepared by weighing the lipid and then dissolving it in ethanol. 0.3 mM solution of fluorescent probe TNS in ethanol:methanol 9:1 was prepared by first making 3 mM solution of TNS in methanol and then diluting to 0.3 mM with ethanol. An aqueous buffer containing 200 mM sodium phosphate dibasic and 100 mM citric acid was prepared. […] Using the Hamilton Microlab Star high throughput liquid handler and Hamilton run control software Software, 7.5 uL of probe/lipid mix were added to 242.5 uL of buffer in a 1 mL 96 well plate (model NUNC 260252, […] Nunc International). This was done with all twelve buffers. After mixing in 1 mL 96 well plate, 100 uL of each probe/lipid/buffer mixture was transferred to a 250 uL black with clear bottom 96 well plate (model COSTAR 3904, Corning). The fluorescence measurements are carried out on the SpectraMax M5 spectrophotometer using software SoftMax pro 5.2 and following parameters: After the measurement, the background fluorescence value of an empty well on the 96 well plate was subtracted from each probe/lipid/buffer mixture. The fluorescence intensity values were then normalized to the value at lowest pH. The normalized fluorescence intensity vs. pH chart was then plotted in the Microsoft Excel software. The twelve points were connected with a smooth line. The point on the line at which the normalized fluorescence intensity was equal to 0.5 was found. […] The pKa determined using this method is precise to about 0.1 pKa units.

[2] = tested on: plasma Factor VII enzyme activity; experiment: Mouse Factor VII dosing / Factor VII Activity Assay; format: in vivo; conditions: percent knock down of plasma Factor VII activity, CD-1 mice, 48 h; for KD FVII 0.03 mg/kg: single IV dose 0.03 mg/kg; for KD FVII 0.3 mg/kg: single IV dose 0.3 mg/kg
Procedure: Female CD-1 mice were received from Harlan Labs and maintained on standard lab chow and water ad libitum. The animals weighed approximately 25 grams at time of dosing. Formulated Factor VII siRNA was administered as a single dose intravenously via the lateral tail vein. Approximately 48 hours after injection, the mice were euthanized by CO2 inhalation followed by exsanguination through the vena cava. […] Plasma collected from injected mice was assayed for Factor VII enzyme activity using the Biophen FVII kit from Hyphen Biomedical (catalog number 221304). An assay standard curve was prepared using pooled plasma aliquots from the vehicle control animals. All samples were diluted to fall within the linear range of the standard curve and Factor VII activity relative to control plasma was reported. Lipid nanoparticles comprising lipid compounds of formula (I) and the FVII siRNA duplex sequence listed above were tested in the Factor VII Activity Assay. The results of this assay are given in Table 4 below as a percent knock down of plasma Factor VII enzyme activity at a dose of 0.3 mg/kg and 0.03 mg/kg.

[3] = Polydispersity index (PDI) of lipid nanoparticle (dynamic light scattering); format: physicochemical
Procedure: Unless indicated otherwise, all PDIs referred to herein are the PDI of the fully formed nanoparticle, as measured by dynamic light scattering on a Malvern Zetasizer. The nanoparticle sample was diluted in phosphate buffered saline (PBS) so that the count rate was approximately 200-400 kcts. The data is presented in Tables 4 and 5 as a weighted average of the intensity measure.

[4] = Particle size of lipid nanoparticle (dynamic light scattering, Malvern Zetasizer); format: physicochemical
Text: The lipid nanoparticles have a size of about 1 to about 2,500 nm, about 1 to about 1,500 nm, about 1 to about 1,000 nm, in a sub-embodiment about 50 to about 600 nm, in a sub-embodiment about 50 to about 400 nm, in a sub-embodiment about 50 to about 250 nm, and in a sub-embodiment about 50 to about 150 nm. Unless indicated otherwise, all sizes referred to herein are the average sizes (diameters) of the fully formed nanoparticle, as measured by dynamic light scattering on a Malvern Zetasizer. The nanoparticle sample is diluted in phosphate buffered saline (PBS) so that the count rate is approximately 200-400 kcts. The data is presented as a weighted average of the intensity measure. Unless indicated otherwise, all particle size measurements referred to in Tables 4 and 5 are the Z-average particle size of the fully formed nanoparticle, as measured by dynamic light scattering on a Malvern Zetasizer. The nanoparticle sample was diluted in phosphate buffered saline (PBS) so that the count rate is approximately 200-400 kcts.

[5] = LNP Chol/DSPC/PEG-DMG 45/44/9/2
[6] = PLK1-424 siRNA LNP, Chol/DSPC/S010 45/44/9/2

CCCCCCCC(=O)OCCCCCCCCCCOc1cc(CN(C)C)cc(OCCCCCCCCCCOC(=O)CCCCCCC)c1OCCCCCCCCCCOC(=O)CCCCCCC [Ex. 99, ((5-((dimethylamino)methyl)benzene-1,2,3-triyl)tris(oxy))tris(decane-10,1-diyl)trioctanoate]
pKa ([1]; probe TNS, read-out: pKa): 5.75

CCCCCCC(CCCCCC)CCCCCC(=O)OCCCCOc1cc(CN(C)C)cc(OCCCCOC(=O)CCCCCC(CCCCCC)CCCCCC)c1 [Ex. 113, ((5-((dimethylamino)methyl)-1,3-phenylene)bis(oxy))bis(butane-4,1-diyl)bis(7-hexyltridecanoate)]
pKa ([1]; probe TNS, read-out: pKa): 6.03
KD FVII 0.03 mg/kg [2, 5]: 57.6%

CCCCCC(CCCCC)CCCCCCCC(=O)OCCCCOc1cc(CN(C)C)cc(OCCCCOC(=O)CCCCCCCC(CCCCC)CCCCC)c1 [Ex. 114, ((5-((dimethylamino)methyl)-1,3-phenylene)bis(oxy))bis(butane-4,1-diyl)bis(9-pentyltetradecanoate)]
pKa ([1]; probe TNS, read-out: pKa): 5.97
KD FVII 0.03 mg/kg [2, 5]: 44%

CCCCCCCC(CCCCCCC)CCCC(=O)OCCCCOc1cc(CN(C)C)cc(OCCCCOC(=O)CCCC(CCCCCCC)CCCCCCC)c1 [Ex. 115, ((5-((dimethylamino)methyl)-1,3-phenylene)bis(oxy))bis(butane-4,1-diyl)bis(5-heptyldodecanoate)]
pKa ([1]; probe TNS, read-out: pKa): 5.87
KD FVII 0.03 mg/kg [2, 5]: 78%

CCCCCCCCC(CCCCCCCC)CC(=O)OCCCCOc1cc(CN(C)C)cc(OCCCCOC(=O)CC(CCCCCCCC)CCCCCCCC)c1 [Ex. 116, ((5-((dimethylamino)methyl)-1,3-phenylene)bis(oxy))bis(butane-4,1-diyl)bis(3-octylundecanoate)]
pKa ([1]; probe TNS, read-out: pKa): 5.67
KD FVII 0.03 mg/kg [2, 5]: 29%

CCCCCCCC(CCCCCCC)CCCC(=O)OCc1cc(COC(=O)CCCC(CCCCCCC)CCCCCCC)cc(CN(C)C)c1 [Ex. 117, (5-((dimethylamino)methyl)-1,3-phenylene)bis(methylene)bis(5-heptyldodecanoate)]
pKa ([1]; probe TNS, read-out: pKa): 5.46

CCCCCCC(CCCCCC)CCCCCC(=O)OCc1cc(COC(=O)CCCCCC(CCCCCC)CCCCCC)cc(CN(C)C)c1 [Ex. 118, (5-((dimethylamino)methyl)-1,3-phenylene)bis(methylene)bis(7-hexyltridecanoate)]
pKa ([1]; probe TNS, read-out: pKa): 5.67
KD FVII 0.03 mg/kg [2, 5]: 46.3%

CCCCCC(CCCCC)CCCCCCCC(=O)OCc1cc(COC(=O)CCCCCCCC(CCCCC)CCCCC)cc(CN(C)C)c1 [Ex. 119, (5-((dimethylamino)methyl)-1,3-phenylene)bis(methylene)bis(9-pentyltetradecanoate)]
pKa ([1]; probe TNS, read-out: pKa): 5.84
KD FVII 0.03 mg/kg [2, 5]: 7.8%

CCCCC/C=C\C/C=C\CCCCCCCC(=O)OCCCCOc1cc(CCCN2CCCCC2)cc(OCCCCOC(=O)CCCCCCC/C=C\C/C=C\CCCCC)c1 [Ex. 120, (9Z,9′Z,12Z,12′Z)-((5-(3-(piperidin-1-yl)propyl)-1,3-phenylene)bis(oxy))bis(butane-4,1-diyl)bis(octadeca-9,12-dienoate)]
pKa ([1]; probe TNS, read-out: pKa): 6.31
KD FVII 0.03 mg/kg [2, 5]: 83.7%

CCCCC/C=C\C/C=C\CCCCCCCC(=O)OCCCCOc1cc(CCCN2CCOCC2)cc(OCCCCOC(=O)CCCCCCC/C=C\C/C=C\CCCCC)c1 [Ex. 122, (9Z,9′Z,12Z,12′Z)-((5-(3-morpholinopropyl)-1,3-phenylene)bis(oxy))bis(butane-4,1-diyl)bis(octadeca-9,12-dienoate)]
pKa ([1]; probe TNS, read-out: pKa): 5.06

CCCCCCCCCC(=O)OCCCCCCCCOc1cc(COC(=O)CCN(C)C)cc(OCCCCCCCCOC(=O)CCCCCCCCC)c1 [Ex. 123]
pKa ([1]; probe TNS, read-out: pKa): 6.08

CCCCCCCCCC(=O)OCCCCCCCCOc1cc(COC(=O)CCCN(C)C)cc(OCCCCCCCCOC(=O)CCCCCCCCC)c1 [Ex. 124, ((5-(((4-(dimethylamino)butanoyl)oxy)methyl)-1,3-phenylene)bis(oxy))bis(octane-8,1-diyl)bis(decanoate)]
pKa ([1]; probe TNS, read-out: pKa): 7.11

CCCCCCCC(=O)OCC(COC(=O)CCCCCCC)OCCCCOc1cc(CN(C)C)cc(OCCCCOC(COC(=O)CCCCCCC)COC(=O)CCCCCCC)c1 [Ex. 125, ((((5-((dimethylamino)methyl)-1,3-phenylene)bis(oxy))bis(butane-4,1-diyl))bis(oxy))bis(propane-3,2,1-triyl)tetraoctanoate]
pKa ([1]; probe TNS, read-out: pKa): 5.75

CCCCCCCC/C=C\CCCCCCCCOc1cc(CN(C)C)cc(OCCCCCCCC/C=C\CCCCCCCC)c1 [Example 1, 1-(3,5-bis((Z)-octadec-9-en-1-yloxy)phenyl)-N,N-dimethylmethanamine]
PDI ([3]; FVII siRNA LNP, Chol/DSPC/PEG-DMG, molar ratio 45/44/9/2): 0.05
PDI ([3]; FVII siRNA LNP, Chol/DSPC/S010, molar ratio 45/44/9/2): 0.124
PDI [3, 6]: 0.152
Size (nm) ([4]; FVII siRNA LNP, Chol/DSPC/PEG-DMG, molar ratio 45/44/9/2, Z-average): 98.2 nm
Size (nm) ([4]; FVII siRNA LNP, Chol/DSPC/S010, molar ratio 45/44/9/2, Z-average): 87.16 nm
Size (nm) [4, 6]: 74.56 nm
KD FVII 0.03 mg/kg ([2]; LNP Chol/DSPC/S010 45/44/9/2): 30.8%
KD FVII 0.3 mg/kg [2, 5]: 75.1%

CCCCC/C=C\C/C=C\CCCCCCCC(=O)OCc1cc(COC(=O)CCCCCCC/C=C\C/C=C\CCCCC)cc(CN(C)C)c1 [Example 33, (9Z,9′Z,12Z,12′Z)-(5-((dimethylamino)methyl)-1,3-phenylene)bis(methylene)bis(octadeca-9,12-dienoate)]
pKa ([1]; listed as Ex. 33): 5.75
KD FVII 0.3 mg/kg [2, 5]: 90.4%

CCCCC/C=C\CC=CCCCCCCCC(=O)OCCCCOc1cc(CN(C)C)cc(OCCCCOC(=O)CCCCCCCC=CC/C=C\CCCCC)c1C [Example 51, (9Z,9′Z,12Z,12′Z)-((5-((dimethylamino)methyl)-2-methyl-1,3-phenylene)bis(oxy))bis(butane-4,1-diyl)bis(octadeca-9,12-dienoate)]
pKa ([1]; probe TNS, read-out: pKa): 5.91

CCCCCCCCCCCC(=O)OCCCCCCCCOc1cc(CN(C)C)cc(OCCCCCCCCOC(=O)CCCCCCCCCCC)c1 [Example 53, ((5-((dimethylamino)methyl)-1,3-phenylene)bis(oxy))bis(octane-8,1-diyl)didodecanoate]
pKa ([1]; listed as Ex. 53): 5.84
KD FVII 0.3 mg/kg [2, 5]: 96.6%

CCCCCCCCC(CCCCCCCC)CC(=O)OCCCOc1cc(CN(C)C)cc(OCCCOC(=O)CC(CCCCCCCC)CCCCCCCC)c1 [Example 56, ((5-((dimethylamino)methyl)-1,3-phenylene)bis(oxy))bis(propane-3,1-diyl)bis(3-octylundecanoate)]
pKa ([1]; listed as Ex. 56): 5.71
KD FVII 0.3 mg/kg [2, 5]: 71.0%

CCCCC/C=C\C/C=C\CCCCCCCC(=O)OCCOCCOc1cc(CN(CC)CC)cc(OCCOCCOC(=O)CCCCCCC/C=C\C/C=C\CCCCC)c1 [Example 58, (9Z,9′Z,12Z,12′Z)-((((5-((diethylamino)methyl)-1,3-phenylene)bis(oxy))bis(ethane-2,1-diyl))bis(oxy))bis(ethane-2,1-diyl)bis(octadeca-9,12-dienoate)]
pKa ([1]; listed as Ex. 58): 6.02
KD FVII 0.03 mg/kg ([2]; LNP Chol/DSPC/S010 45/44/9/2): 15.25%
KD FVII 0.3 mg/kg [2, 5]: 78.1%
